Structures can show the parent of a compound that is named as a salt.
Legend:
[1] = tested on: Beagle-Hunde; assay: Blood pressure, heart rate and left ventricular dp/dt in the anaesthetised beagle dog, i.v. administration; type: in vivo; conditions: Hund; for Blutdruckabfall: Natriumpentobarbital; for % Zunahme in dp/dt max: left ventricle
Procedure: 2. Blutdruck am Hund: Methode: Beagle-Hunde beiderlei Geschlechts (Gewicht im Bereich 10 bis 15 kg) wurden mit Natriumpentobarbital narkotisiert (35 mg/kg, i.v.). Nach Einführung eines Endotrachealrohrs wurden sowohl die Oberschenkelarterie als auch die -vene zur Aufnahme des Blutdrucks und zur Verabreichung der Verbindung kanüliert. Der Druck im linken Ventrikel wurde mit einem Katheterspitzen-Messwandler (Millar-Kathether) gemessen und über einen Hugo Sachs-Differentiator differenziert. Sämtliche Methoden wurden auf einem Hellige-Schreibgerät mit sechs Kanälen aufgezeichnet. Die Elektrokardiogrammsignale wurden auf einem Becton-Dickinson-Gerät verfolgt.
Eine einprozentige Lösung der erfindungsgemäßen Verbindung in destilliertem Wasser wurde hergestellt und in verschiedenen Dosierungen intravenös verabreicht.

[2] = tested on: Katzen; assay: Blood pressure in the anaesthetised cat (femoral artery), i.v. administration; type: in vivo; conditions: Katze, Dosis 3 mg/kg
Procedure: 1. Blutdruck an der Katze: Katzen beiderlei Geschlechts von 3 bis 4 kg Gewicht wurden mit Äther narkotisiert und unter Chloralose-Narkose (70 mg/kg, i.v.) gehalten. Sowohl die Oberschenkelarterie als auch -vene wurden zur Aufzeichnung des Blutdrucks und zur Verabreichung von Medikamenten kanüliert. Der Blutdruck in der Oberschenkelarterie wurde über einen Messwandler Statham 23 Db auf einem physiologischen Nihon-Kohden-Registriergerät aufgezeichnet. Die zu prüfende Verbindung wurde in destilliertem Wasser gelöst und intravenös verabreicht, und der Blutdruckabfall und die Dauer der blutdrucksenkenden Wirkung wurden notiert.
Die mit diesem Modell für typische erfindungsgemäße Verbindungen erhaltenen Resultate sind in der nachfolgenden Tabelle angegeben: […]

In the case of C=CC1(C)CC(=O)C2(O)C(C)(O1)C(OC(=O)CC)C(OC(=O)CN1CCCCC1)C1C(C)(C)CCC(O)C12C (stereo not drawn) [C2H5, 1α,9α-Dihydroxy-8,13-epoxy-6ß-piperidino acetoxy-7ß-propionyloxy-labd-14-en-11-on hydrochlorid], the Dauer ([1]; Dosis 0.3 mg/kg) is reported as 10 min, the Dauer ([1]; Dosis 1.0 mg/kg) is reported as 60 min and the Pulszunahme ([1]; Dosis 1.0 mg/kg) is reported as “+19 Pulsschläge pro Min”. The Blutdruckabfall ([1]; Dosis 0.3 mg/kg) was 10 mm Hg, the Blutdruckabfall ([1]; Dosis 1.0 mg/kg) was 46 mm Hg and the “% Zunahme in dp/dt max” value ([1]; Dosis 0.3 mg/kg) was “+38%”. The “% Zunahme in dp/dt max” value ([1]; Dosis 1.0 mg/kg) was “+65%”, the Blutdruckabfall ([2]; Chloralose-Narkose) was 30 mm Hg and the Dauer ([2]; duration of hypotensive effect) was over 120 min.

Source: patent EP0252482A2, “7-Acyloxy-6-aminoacyloxypolyoxylabdanes, process for their preparation and their use as medicine” (HOECHST AKTIENGESELLSCHAFT, priority 1986, dated 1988)
